# How the values were obtained:
# E. coli = experiment: Drug susceptibility testing by NAD-dependent ligase mediated PCR assay; type: cell-based, Escherichia coli; settings: for Cycle at which PCR was positive: plus gentamicin 50 μg/ml
# Description: The PCR signal generated is related to the number of ligated molecules of the DNA substrate which in turn is related to the number of ligase molecules present. In turn, the number of molecules of ligase present is dependent on the viability of the bacterium. Upon culture of a given bacterium, if the bacteria are healthy, growing and increasing in number there will be progressively more ligase present which will generate more ligation and more PCR signal. If the bacteria are unhealthy and non-viable or dying there will be no increase in ligase on culture and the number of ligase molecules might even be expected to decrease which will be reflected in the amount of ligation and PCR signal generated. In this example we have tested the susceptibility of the organism to an antibiotic. By culturing in the presence and absence of antibiotic we can compare the signal generated from the bacterial ligase at different time points. Additionally, the experiment can be performed with and without the addition of the NAD+ cofactor. In the presence of added cofactor the ligase can cycle through many ligation steps. In the absence of added cofactor the ligase must depend on endogenous bacterial NAD+ for ligation. These two conditions, therefore are two different measures of the health of the bacterial cell
# 1. 10 ml of media (LB broth) containing 50 μg/ml gentamicin was inoculated with […] E. coli bacteria/ml and incubated for 3 hours. At 30 min time points 1 ml of the culture was removed and placed on ice until completion of the time course.
# 2. The bacteria were then pelleted by centrifugation at 6,000×g for 5 min and the supernatant removed.
# 3. The protocol from this stage was identical to steps 3 to 8 in example 1 except that the ligase reaction was performed with and without added NAD+.
# Staph. aureus = experiment: Sensitivity of Staph. aureus cells to antibiotic, NAD-dependent ligase detection (LiMA-2, Taq-Man real time PCR); type: cell-based, Staphylococcus aureus; settings: 10^4 cells added to culture medium, after 4 hours in the presence of antibiotic
# Experimental: FIG. 5. Sensitivity of Staph. aureus cells to antibiotic. […]
# Take 1 ml fresh Staph. aureus culture (10^6 cells/μl), spin 8000 rpm 5 min, resuspend pellet in 1 ml deionised water Dilute in a series of 10 fold dilutions down to 10^2 cells/μl
# After ligation step above add 2 μl of following nuclease mix to each tube:
# Add 2 μl to PCR mastermix, cycles were:
# The detection limit in this experiment was estimated to be between 10 and 100 cells.
Molecule,"Cycle at which PCR was positive (E. coli; With added NAD+, time 0 min)","Cycle at which PCR was positive (E. coli; With added NAD+, time 30 min)","Cycle at which PCR was positive (E. coli; With added NAD+, time 60 min)","Cycle at which PCR was positive (E. coli; With added NAD+, time 90 min)","Cycle at which PCR was positive (E. coli; With added NAD+, time 120 min)","Cycle at which PCR was positive (E. coli; With added NAD+, time 150 min)","Cycle at which PCR was positive (E. coli; With added NAD+, time 180 min)","Cycle at which PCR was positive (E. coli; Without added NAD+, time 0 min)","Cycle at which PCR was positive (E. coli; Without added NAD+, time 30 min)","Cycle at which PCR was positive (E. coli; Without added NAD+, time 60 min)","Cycle at which PCR was positive (E. coli; Without added NAD+, time 90 min)","Cycle at which PCR was positive (E. coli; Without added NAD+, time 120 min)","Cycle at which PCR was positive (E. coli; Without added NAD+, time 150 min)","Cycle at which PCR was positive (E. coli; Without added NAD+, time 180 min)","signal from the bacterial ligase (E. coli; in the presence of gentamicin 50 μg/ml, incubation up to 3 hours)",fall of NAD-dependent ligase content (Staph. aureus)
gentamicin,26.2,25.1,25.7,26.2,27.2,26.8,26.3,29.5,29.4,31.6,30.1,30.3,29.4,30.1,does not increase with incubation,–
Cc1onc(-c2ccccc2)c1C(=O)N[C@@H]1C(=O)N2[C@@H]1SC(C)(C)[C@@H]2C(=O)O [oxacillin],–,–,–,–,–,–,–,–,–,–,–,–,–,–,–,> 2×10^3 fold
